ChEMBL document CHEMBL5030514, “Discovery of Anti-TNBC Agents Targeting PTP1B: Total Synthesis, Structure-Activity Relationship, In Vitro and In Vivo Investigations of Jamunones” (J Med Chem, 2021)
Activity calls are given as the source filed them. The calls are words filed in the database; no cut-off is given here.

How the values were obtained:
MCF7 [1] = assay: Induction of mitochondrial apoptosis in human MCF7 cells assessed as viable cells at 15 uM measured after 24 hrs by FITC -annexin V/PI double staining based flow cytometric analysis (reference value: 93.2%); assay type: functional; conditions: read-out: Activity
MDA-MB-231 [2] = assay: Cell cycle arrest in human MDA-MB-231 cells assessed as downregulation of CDK2 expression by Western blot analysis; assay type: functional, cell-based
MCF7 [3] = assay: Induction of mitochondrial apoptosis in human MCF-7 cells assessed as formation of apoptotic bodies by Hoechst 33258 staining based fluorescence microscopic assay; assay type: functional, cell-based
MCF7 [4] = assay: Induction of apoptosis in human MCF-7 cells assessed as increase in production of cleaved caspase-3 at 1.67 to 15 uM measured after 24 hrs by Western blot analysis; assay type: functional, cell-based; conditions: dose 1.67-15 µM
MCF7 [5] = assay: Induction of mitochondrial apoptosis in human MCF-7 cells assessed as total apoptotic cells by fluorescein isothiocyanate -annexin V/PI double staining based flow cytometric analysis (reference value: 4.4%); assay type: functional
MDA-MB-231 [6] = assay: Antitumour activity against human MDA-MB-231 cells xenografted in BALB/c nude mouse assessed as upregulation of cleaved poly(ADP-ribose) polymerase level at 15 to 30 mg/kg, ip administered once for every other day for 20 days by Western blot analysis; assay type: functional, organism-based; conditions: dose 15-30 mg/kg, time 20.0 day
MCF7 [7] = assay: Induction of mitochondrial apoptosis in human MCF-7 cells assessed as chromatin shrinkage by Hoechst 33258 staining based fluorescence microscopic assay; assay type: functional, cell-based
MDA-MB-231 [8] = assay: Cell cycle arrest in human MDA-MB-231 cells assessed as accumulation of cells at S phase at 5 uM measured after 24 hrs by propidium iodide staining based flow cytometry (reference value: 27.6%); assay type: functional

## CCCC/C=C/CCCCCCCCCC1(O)CC(=O)c2c(O)c(C)c(O)c(C)c2O1 (stereo not drawn)
MCF7 [1]
  viability at 15 µM: 78.7%
MDA-MB-231 [2]
  Activity: Dose-Dependent Effect
MCF7 [3]
  Activity: Active
MCF7 [4]
  Activity: Dose-Dependent Effect
MCF7 [5]
  Activity: 13.6%
MDA-MB-231 [6]
  Activity: Active
MCF7 [7]
  Activity: Active
MDA-MB-231 [8]
  Activity: 21.3%
